Test results from PubChem BioAssay AID485337 (Sanford-Burnham Center for Chemical Genomics, 2010).
Activity calls are given as the source filed them. The rule behind the calls is not given here.

The compounds below were run against SUMO-conjugating enzyme UBC9 (Homo sapiens) (UniProt P63279) (assay: UBC9-dependent SUMO conjugation inhibition – biochemical, HTRF, set 2, SAR follow-up (AID 485337)). Conditions: in vitro SUMOylation, HTRF read-out.
Sequence of SUMO-conjugating enzyme UBC9 (Homo sapiens) (P63279 whole entry, looked up): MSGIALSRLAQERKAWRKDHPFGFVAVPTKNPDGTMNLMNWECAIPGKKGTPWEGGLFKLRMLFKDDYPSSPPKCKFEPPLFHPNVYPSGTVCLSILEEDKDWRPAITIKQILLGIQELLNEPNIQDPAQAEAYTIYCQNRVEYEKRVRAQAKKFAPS

Row | Compound | IC50
1 | CCCCn1c(NC(C)=O)c(C#N)c2nc3ccccc3nc21 | 3.39 µM
2 | COc1cc(/C=C2\C(=O)N(c3ccccc3)N=C2C)ccc1O | > 100 µM (inactive)
3 | COc1ccc2c(c1)C(NC(C)=O)C(=O)N2CCOc1ccccc1 (centres undefined) | > 100 µM (inactive)
4 | N#Cc1c(NC(=O)c2ccccc2Cl)n(Cc2ccccc2)c2nc3ccccc3nc12 | 12.2 µM
5 | CCCN1C(=O)C(NC(C)=O)c2cc(OC)ccc21 (centres undefined) | > 100 µM (inactive)
6 | COc1cc(/C=C2\C(=O)N(c3ccccc3)N=C2C)ccc1OCc1ccccc1 | > 100 µM (inactive)
7 | CCCCn1c(NC(=O)c2ccccc2)c(S(=O)(=O)c2ccc(C)cc2)c2nc3ccccc3nc21 | inactive
8 | CCCCn1c(N)c(S(=O)(=O)c2ccc(C)cc2)c2nc3ccccc3nc21 | 9.28 µM
9 | CC(=O)NC1C(=O)N(CCN2CCOCC2)c2ccc(C)cc21 (centres undefined) | > 100 µM (inactive)
10 | CCCCn1c(NC(=O)c2ccccc2Cl)c(S(=O)(=O)c2ccccc2)c2nc3ccccc3nc21 | 37.6 µM
11 | Nc1c(C(=O)NCc2ccco2)c2nc3ccccc3nc2n1Cc1ccccc1 | 31.1 µM
12 | CCCCNC(=O)c1c(NC(=O)c2ccccc2)n(Cc2ccccc2)c2nc3ccccc3nc12 | 30.6 µM
13 | COCCNC(=O)c1c(NC(=O)c2ccccc2)n(Cc2ccccc2)c2nc3ccccc3nc12 | 13.4 µM
14 | CCCCn1c(NC(=O)c2ccccc2)c(C#N)c2nc3ccccc3nc21 | 16.4 µM
15 | COc1ccc2c(c1)C(NC(C)=O)C(=O)N2CC1COc2ccccc2O1 (centres undefined) | > 100 µM (inactive)
16 | S=c1[nH]nc(-c2cc(-c3ccccc3)n[nH]2)n1N=Cc1ccc(Br)s1 | inactive
17 | Cc1cc(C)c2c(c1)C(=O)C(=O)N2CCN1CCOCC1 | > 100 µM (inactive)
18 | CCCCCn1c(NC(=O)c2ccco2)c(C(=O)OCC)c2nc3ccccc3nc21 | 14.8 µM
19 | CCCCn1c(NC(=O)c2ccco2)c(S(=O)(=O)c2ccc(C)cc2)c2nc3ccccc3nc21 | 12.5 µM
20 | COc1cc(/C=C2\C(=O)N(c3ccccc3)N=C2C)ccc1OC(=O)c1cccs1 | > 100 µM (inactive)
21 | COCCn1c(NC(=O)c2ccc(Cl)cc2)c(S(=O)(=O)c2ccc(C)cc2)c2nc3ccccc3nc21 | 78.8 µM
22 | COc1ccc2c(c1)C(NC(C)=O)C(=O)N2CCc1ccccc1 (centres undefined) | > 100 µM (inactive)
23 | COc1ccc2c(c1)C(NC(C)=O)C(=O)N2CCN1CCOCC1 (centres undefined) | 6.06 µM
24 | COc1ccc2c(c1)C(=O)C(=O)N2CCN1CCOCC1 | > 100 µM (inactive)
25 | CCCCn1c(NC(=O)c2ccco2)c(C#N)c2nc3ccccc3nc21 | 8.06 µM
26 | CCCCn1c(NC(=O)CC)c(S(=O)(=O)c2ccc(C)cc2)c2nc3ccccc3nc21 | inactive
27 | COc1ccc(CN2C(=O)C(NC(C)=O)c3ccccc32)cc1 (centres undefined) | > 100 µM (inactive)
28 | CCCCn1c(NC(=O)c2ccc(Cl)cc2)c(C#N)c2nc3ccccc3nc21 | 22.6 µM
29 | N#Cc1c(NC(=O)c2ccccc2Cl)n(C2CCCCC2)c2nc3ccccc3nc12 | 23.1 µM
